# Reference: US11926645B2, “Compounds and methods for treatment of viral infections” (priority 2020, dated 2024)
# pEC50: −log10 of the molar value. Where two headings read alike, the source gives them in different places.
# How the values were obtained:
# SARS-CoV-2-Nluc viruses = assay: microbe, parasite or virus in culture; format: cell-based; conditions: Severe acute respiratory syndrome coronavirus 2; host cells A549-ACE2; read-out: EC50, WA1/2020-nano luciferase
# in vitro [1] = format: cell-based; conditions: human; host cells A549-ACE2; read-out: CC50, A549-ACE2
# Procedure: The cytotoxicity of compounds was determined in A549-hACE2 cells in the following manner. Compounds (200 nL) were spotted onto 384-well Grenier plates prior to seeding 5000 A549-hACE2 cells/well in a volume of 40 μL culture medium. The plates were incubated at 37° C. for 48 hours with 5% CO2. On day 2, 40 μL of CellTiter-Glo (Promega) was added and mixed 5 times.
# [2] = tested on: RSV-Fluc (Respiratory Syncytial virus strain A2 containing the firefly luciferase reporter); assay: microbe, parasite or virus in culture; format: cell-based; conditions: human respiratory syncytial virus, 72 h, NHBE cells, three days
# [3] = tested on: SARS-CoV-2 SA/2020 B.1.351; assay: microbe, parasite or virus in culture; format: cell-based; conditions: Severe acute respiratory syndrome coronavirus 2, Vero C1008
# SARS-CoV-2 WA1/2020 A = assay: microbe, parasite or virus in culture; format: cell-based; conditions: Severe acute respiratory syndrome coronavirus 2, Vero C1008
# SARS-CoV-2 BZ/2021 P.1 = assay: microbe, parasite or virus in culture; format: cell-based; conditions: Severe acute respiratory syndrome coronavirus 2, Vero C1008
# SARS-CoV-2 CA/2020 = assay: microbe, parasite or virus in culture; format: cell-based; conditions: Severe acute respiratory syndrome coronavirus 2, Vero C1008
# in vitro [4] = format: in vitro ADME, Human; conditions: human, s9, pH 7.4
# Procedure: (§1) Duplicate aliquots of test compound or positive control substrate (GS-7340) were added to S9 stock diluted with 100 mM phosphate buffered saline, pH 7.4, to obtain a protein concentration of 1.0 mg/mL. The S9 metabolic reactions were initiated by the addition of the substrates to the S9 reaction mixture to a final concentration of 2 μM. At 0, 10, 20, 30, 60 and 120 min, 25 μL aliquots of the reaction mixture were transferred to plates containing 225 μl of IS/Q solution. After quenching, the plates were centrifuged at 3000×g for 30 minutes, and 150 μL aliquots of each supernatant were diluted with 150 μL water. Aliquots (10 μL) of the diluted supernatant were analyzed on a Thermo Q-Exactive mass spectrometer as described below.
# (§2) Quantification of test compounds and controls was performed by analyte/internal standard peak area ratio (PAR) values measured on a Thermo Q-Exactive mass spectrometer coupled to a Dionex UltiMate 3000 HPLC with a Leap Technologies HTC PAL autosampler. The column used was a Thermo Hypersil GOLD (1.9 μm particle size, 2.1×50 mm). Mobile phase A consisted of 0.1% (v/v) formic acid in water. Mobile phase B consisted of 0.1% (v/v) formic acid in acetonitrile. Elution of analytes was achieved by a series of linear gradients of acetonitrile in water containing 0.1% (v/v) formic acid. The mass spectrometer was calibrated on a weekly basis and mass tolerance of 5 ppm was used.
# in vitro [5] = format: in vitro ADME; conditions: s9, pH 7.4
# Procedure: as §1, with “mM potassium” for “mM”, “phosphate buffer,” for “phosphate buffered saline,”, “of 2.4” for “of 1.0”, “At 2, 12, 25, 45, 65” for “At 0, 10, 20, 30, 60”, “and 90” for “and 120”, “150 μl,” for “150 μL”
# as §2
# [6] = male cynomolgus monkeys; oral Reference Compound A 5 mg/kg
# [7] = male beagle dogs; oral Reference Compound A 5 mg/kg
# [8] = female ferrets; oral Reference Compound A 20 mg/kg
# [9] = male Balb/c mice; oral Reference Compound A 24 mg/kg
# [10] = ferrets, single dose, Reference Compound A i.v. 20 mg/kg
# in vivo [11] = conditions: male, cynomolgus monkey, po, 5 mg/kg
# in vivo [12] = conditions: male, beagle, dog, po, 5 mg/kg
# in vivo [13] = conditions: male, Sprague-Dawley, rat, po; for AUC(0-inf): Reference Compound A AUCinf.; for Cmax: Reference Compound A Cmax
# in vivo [14] = conditions: female, po, 20 mg/kg
# in vivo [15] = conditions: male, Balb/c, mouse, po, 24 mg/kg
# in vitro [16] = conditions: African green monkey
# in vitro [17] = conditions: human
# in vitro [18] = conditions: hamster
# in vitro [19] = conditions: human; remark: listed apart in the source
# in vitro [20] = conditions: human, PrestoBlue
# Plasma stability = conditions: human
smiles,measurement,setting,value
"N#C[C@@]1(c2ccc3c(N)ncnn23)O[C@H](CO)[C@@H](O)[C@H]1O [Reference Compound A, (2R,3R,4S,5R)-2-(4-aminopyrrolo[2,1-f][1,2,4]triazin-7-yl)-3,4-dihydroxy-5-(hydroxymethyl)tetrahydrofuran-2-carbonitrile]",pEC50,SARS-CoV-2-Nluc viruses,5.80
same,CC50,in vitro [1],> 50 µM
same,pEC50,[2],5.71
same,pEC50,[3],6.47
same,pEC50,SARS-CoV-2 WA1/2020 A,6.17
same,pEC50,SARS-CoV-2 BZ/2021 P.1,6.26
same,pEC50,SARS-CoV-2 CA/2020,6.68
same,half-life at 2 μM,in vitro [4],> 11.7 h
same,half-life at 2 μM,in vitro [5],9.87 h
same,Reference Compound A F % (based on compound A mg-eq dose),[6],3.4%
same,Reference Compound A F % (based on compound A mg-eq dose),[7],89%
same,Reference Compound A F % (based on Reference Compound A mg-eq dose),[8],87%
same,Reference Compound A F % (based on compound A mg-eq dose),[9],33%
same,Reference Compound A AUClast,[10],81.1 µM·h
same,Reference Compound A IV - CL,[10],14.3 mL/min/kg
same,Reference Compound A t1/2,[10],3.4 h
same,Cmax,[10]; read-out: Reference Compound A Cmax,54.2 µM
same,AUC(0-inf),in vivo [11],1.86 µM·h
same,Cmax,in vivo [11],0.536 µM
same,AUC(0-inf),in vivo [12],83.9 µM·h
same,Cmax,in vivo [12],27.3 µM
same,AUC(0-inf),in vivo [13]; 5 mg/kg,3.07 µM·h
same,Cmax,in vivo [13]; 5 mg/kg,0.875 µM
same,AUC(0-inf),in vivo [13]; 10 mg/kg,2.36 µM·h
same,Cmax,in vivo [13]; 10 mg/kg,0.578 µM
same,AUC(0-inf),in vivo [14],70.9 µM·h
same,Cmax,in vivo [14],11.7 µM
same,AUC(0-inf),in vivo [15],45.1 µM·h
same,Cmax,in vivo [15],13.7 µM
same,CC50,in vitro [16],> 100 µM
same,CC50,in vitro [17],> 100 µM
same,CC50,in vitro [18],> 100 µM
same,CC50,in vitro [19],> 100 µM
same,CC50,"in vitro [20]; CC50, F2 HAE, primary HAE donor F2, 72 hours",> 100 µM
same,CC50,"in vitro [20]; CC50, F3 HAE, primary HAE donor F3, 72 hours",> 100 µM
same,CC50,"in vitro [20]; CC50, M2 HAE, primary HAE donor M2, 72 hours",> 100 µM
same,CC50,"in vitro [20]; CC50, M6 HAE, primary HAE donor M6, 72 hours",> 100 µM
same,half-life at 2 μM,Plasma stability,> 25 h
